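Protocol summary: plate cells (96-well), add compound at 5 concentrations, incubate 48 h, interpolate endpoints linearly. The concentration for full growth arrest is given as TGI.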
What was measured:
Test in all cases: inhibition of tumour cell growth, NCI panel, 48 h
SF-539 CNS = test system: SF-539 CNS
MOLT-4 leukemia = test system: MOLT-4 leukemia
MDA-N = test system: MDA-N
MDA-MB-231 breast = test system: MDA-MB-231 breast
SW-620 colon = test system: SW-620 colon
KM12 colon = test system: KM12 colon
UACC-257 melanoma = test system: UACC-257 melanoma
A498 renal = test system: A498 renal
HOP-92 NSCLC = test system: HOP-92 NSCLC
NCI-H23 lung = test system: NCI-H23 lung
MALME-3M melanoma = test system: MALME-3M melanoma
SNB-19 CNS = test system: SNB-19 CNS
A549 NSCLC = test system: A549 NSCLC
COLO 205 colon = test system: COLO 205 colon
CAKI-1 renal = test system: CAKI-1 renal
OVCAR-8 ovarian = test system: OVCAR-8 ovarian
SNB-75 CNS = test system: SNB-75 CNS
LOX IMVI melanoma = test system: LOX IMVI melanoma
SK-OV-3 ovarian = test system: SK-OV-3 ovarian
HCC-2998 colon = test system: HCC-2998 colon
NCI-H226 lung = test system: NCI-H226 lung
HT29 colon = test system: HT29 colon
MDA-MB-435 = test system: MDA-MB-435
EKVX NSCLC = test system: EKVX NSCLC
SF-295 CNS = test system: SF-295 CNS
SK-MEL-28 melanoma = test system: SK-MEL-28 melanoma
OVCAR-3 ovarian = test system: OVCAR-3 ovarian
T-47D breast = test system: T-47D breast
DU-145 prostate = test system: DU-145 prostate
OVCAR-5 ovarian = test system: OVCAR-5 ovarian
TK-10 renal = test system: TK-10 renal
HCT-15 colon = test system: HCT-15 colon
OVCAR-4 ovarian = test system: OVCAR-4 ovarian
PC-3 prostate = test system: PC-3 prostate
HOP-62 NSCLC = test system: HOP-62 NSCLC
HL-60(TB) leukemia = test system: HL-60(TB) leukemia
UACC-62 melanoma = test system: UACC-62 melanoma
SK-MEL-2 melanoma = test system: SK-MEL-2 melanoma
M14 melanoma = test system: M14 melanoma
MCF7 breast = test system: MCF7 breast
UO-31 renal = test system: UO-31 renal
SN12C renal = test system: SN12C renal
NCI/ADR-RES ovarian = test system: NCI/ADR-RES ovarian
NCI-H522 lung = test system: NCI-H522 lung
SK-MEL-5 melanoma = test system: SK-MEL-5 melanoma
IGROV1 ovarian = test system: IGROV1 ovarian
ACHN renal = test system: ACHN renal
SR leukemia = test system: SR leukemia
786-0 renal = test system: 786-0 renal
CCRF-CEM leukemia = test system: CCRF-CEM leukemia
K-562 leukemia = test system: K-562 leukemia
U251 CNS = test system: U251 CNS
BT-549 breast = test system: BT-549 breast
RPMI-8226 leukemia = test system: RPMI-8226 leukemia
HCT-116 colon = test system: HCT-116 colon
SF-268 CNS = test system: SF-268 CNS
HS 578T breast = test system: HS 578T breast
RXF 393 renal = test system: RXF 393 renal
NCI-H460 lung = test system: NCI-H460 lung

Measured: TGI

Cc1cc(Nc2ccc(S(=O)(=O)O)cc2)c2ccccc2n1
not listed: RXF 393 renal | NCI-H460 lung
> 100 µM: all other assays above

O=C1C(Cl)=C(N2C(=O)CCC2=O)C(=O)c2ccccc21
49.7 µM: OVCAR-5 ovarian | HCT-116 colon
59.6 µM: NCI-H522 lung
26.6 µM: HOP-92 NSCLC
27.2 µM: HCT-15 colon
60.3 µM: HCC-2998 colon
56.9 µM: SW-620 colon
33.7 µM: MCF7 breast
36.7 µM: SK-MEL-5 melanoma
44 µM: MDA-MB-435
37.9 µM: 786-0 renal
21.8 µM: CCRF-CEM leukemia
63.3 µM: U251 CNS
34.4 µM: UO-31 renal
86.4 µM: LOX IMVI melanoma
79.8 µM: NCI-H23 lung
57.5 µM: UACC-257 melanoma
45.7 µM: RXF 393 renal
95 µM: DU-145 prostate
29.1 µM: ACHN renal
37.3 µM: BT-549 breast
34.3 µM: OVCAR-3 ovarian
35 µM: MDA-N
32.8 µM: COLO 205 colon
38.1 µM: CAKI-1 renal
33.6 µM: SN12C renal
17.1 µM: K-562 leukemia
6.73 µM: HL-60(TB) leukemia
48 µM: SK-MEL-28 melanoma
82.5 µM: SR leukemia
not listed: MALME-3M melanoma | OVCAR-4 ovarian | RPMI-8226 leukemia
> 100 µM: all other assays above

Source: PubChem BioAssay (NCI)
